Data as given in publication PMC2809098, “HH Domain of Alzheimer’s Disease Aβ Provides Structural Basis for Neuronal Binding in PC12 and Mouse Cortical/Hippocampal Neurons” (PLoS ONE, 2010).
No end group written: not given here.

Legend:
immobilized Aβ40 fibrils = target: T1, immobilized Aβ40 fibrils (Homo sapiens, UniProt P05067); experiment: Surface plasmon resonance binding to immobilized Aβ40 fibrils; settings: read-out: ka
T1 construct: made in house; host or cells: chemical solid-phase peptide synthesis (CEM Liberty synthesizer)
Description: Surface Plasmon Resonance (SPR) analyses were performed at 25 °C using Biacore 3000 optical biosensors with research grade CM5 chips (Biacore, Uppsala, Sweden). […] The binding sensograms were recorded following the injection of freshly prepared peptides over the immobilized surface for 5 min at a flow rate of 30 µl/min. The dissociation profile was monitored for about 15 min, and then the surface was regenerated with two short 8 sec injections of 50 mM NaOH. Extensive validation studies were performed to ensure that Aβ fibrils immobilized on the chip retained their binding characteristics even after the regeneration procedure. Kinetic data analysis was performed using Biaevaluation software (Version 3.2) provided by Biacore Inc., Uppsala, Sweden.

[1] = tested on: amyloid plaques in APP, PS1 mouse brain sections; experiment: Labeling of amyloid plaques in brain sections with radioiodinated peptides, emulsion autoradiography; type: binding; settings: 100 pM radioiodinated peptide, 3 hrs, unfixed 15 µm cryosections, 20-month old APP, one day of exposure
Description: HPLC-purified ^125I-Aβ40, ^125I-Aβ40 H13G, ^125I-Aβ40 H13R, ^125I-Aβ40 H13,14G or buffer was incubated in vitro with unfixed cryosections (15 µm) of brain from a 20-month old APP, PS1 AD transgenic mouse using the same procedure used previously. The rodent Aβ was not evaluated because the peptide lacks a tyrosine amino acid for radioiodination. Briefly, the sections were incubated for 3 hrs with 100 pM radioiodinated peptide or alone in 250 µl of TBS (50 mM Tris HCl, 138 mM sodium chloride, pH 7.0) containing 0.1% BSA, 0.6 mg/ml magnesium chloride, 0.04 mg/ml bacitracin, 0.002 mg/ml chymostatin, and 0.004 mg/ml leupeptin. After rinsing and air drying overnight at 4°C., the sections were fixed in formalin for 5 min and then underwent immunoperoxidase histochemistry (IH) for amyloid using an anti-Aβ monoclonal mouse antibody (4G8, 1∶1000, Signet Laboratories, Dedham, MA). Next, the sections were dipped in an autoradiographic emulsion (Type NTB-3, Kodak, Rochester, NY) for direct comparison of ^125I-peptide labeling to anti-Aβ IH. The slides were dipped in emulsion, exposed for various durations, and developed according to the instructions. The sections were dehydrated with successive changes of ethanol and xylene and then coverslipped.

T1 sequence (P05067 672-711): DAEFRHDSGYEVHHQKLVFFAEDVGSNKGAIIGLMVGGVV

DAEFGHDSGFEVRHQKLVFFAEDVGSNKGAIIGLMVGGVV [Aβ40 R5G, Y10F, H13R, Aβ1-40 R5G, Y10F, H13R]
kon at 75 µM (immobilized Aβ40 fibrils): 31 M⁻¹ s⁻¹

^125I-Aβ40 H13,14G: radioiodinated Aβ40 H13,14G
labeling of amyloid plaques [1]: labeled amyloid plaques equally well

^125I-Aβ40 H13G
labeling of amyloid plaques [1]: labeled amyloid plaques equally well

^125I-Aβ40 H13R
labeling of amyloid plaques [1]: labeled amyloid plaques equally well

^125I-Aβ40: radioiodinated Aβ40 [reference compound]
labeling of amyloid plaques [1]: labeled amyloid plaques equally well
